Patent publication US12325697B2 (Nimbus Clio, Inc., priority 2021, dated 2025)

Experiments:
[1] = biological target: Recombinant human c-Cbl (aa 47-435) (Homo sapiens (Human), UniProt P22681); experiment: c-Cbl Biochemical Assay (TR-FRET)
In short: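 Biotinylated c-Cbl (6 nM) preincubated 30 min RT with compound, then reacted 60-90 min with Src-Zap70 (2.5-10 nM) and 0.5 mM ATP, pH 7.0 HEPES buffer. Stopped with EDTA; 100 nM Bodipy-ubiquitinated UBE2D2 binding read by TR-FRET after 60 min; IC50 from 4-parameter fit.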

[2] = biological target: Recombinant human Cbl-b (aa 36-427) (Homo sapiens (Human), UniProt Q13191); experiment: Cbl-b Biochemical Assay (TR-FRET); settings: read-out: TR-FRET hCbl-b IC50
In short: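 Two-step TR-FRET: 6 nM biotinylated Cbl-b preincubated 30-60 min with compound, then 60 min at RT with 1-2.5 nM Src-Zap70 and 0.5 mM ATP in HEPES pH 7.0 buffer, 1% DMSO. Stopped with 5 mM EDTA plus 100 nM UBE2D2-Ub-FL-BODIPY and 1 nM streptavidin-Tb, 60 min; 520 nm signal; IC50 from 4-parameter fit.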

Chain of Recombinant human c-Cbl (aa 47-435) (P22681 47-435): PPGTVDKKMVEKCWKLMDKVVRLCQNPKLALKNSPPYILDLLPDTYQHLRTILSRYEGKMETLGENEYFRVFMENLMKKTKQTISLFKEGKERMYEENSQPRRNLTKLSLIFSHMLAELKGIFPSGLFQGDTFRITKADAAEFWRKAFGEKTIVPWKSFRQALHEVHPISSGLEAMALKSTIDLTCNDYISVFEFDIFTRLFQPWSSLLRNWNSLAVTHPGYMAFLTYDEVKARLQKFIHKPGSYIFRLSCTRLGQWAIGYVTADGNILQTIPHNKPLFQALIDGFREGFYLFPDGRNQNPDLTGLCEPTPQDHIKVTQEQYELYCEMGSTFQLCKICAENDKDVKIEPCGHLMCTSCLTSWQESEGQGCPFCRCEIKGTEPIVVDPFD
Chain of Recombinant human Cbl-b (aa 36-427) (Q13191 36-427): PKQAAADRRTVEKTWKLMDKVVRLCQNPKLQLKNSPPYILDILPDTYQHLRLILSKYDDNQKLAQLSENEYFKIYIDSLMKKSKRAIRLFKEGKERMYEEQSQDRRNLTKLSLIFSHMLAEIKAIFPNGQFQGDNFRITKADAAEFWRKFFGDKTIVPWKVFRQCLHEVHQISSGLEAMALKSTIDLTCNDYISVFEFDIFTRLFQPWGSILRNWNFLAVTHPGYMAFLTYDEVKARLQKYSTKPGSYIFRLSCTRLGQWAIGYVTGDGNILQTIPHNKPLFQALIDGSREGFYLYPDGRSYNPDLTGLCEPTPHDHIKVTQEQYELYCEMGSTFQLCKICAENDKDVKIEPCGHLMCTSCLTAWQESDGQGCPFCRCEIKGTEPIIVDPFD

SMILES | IC50 [1] [nM] | IC50 [2] [nM]
CNC[C@@H](O)COc1ccc2c(c1)C(=O)N(c1cc(-c3ccc(C#N)cc3-c3nncn3C)cc(C3CC3)n1)C2 [AJV-3, 4-(2-Cyclopropyl-6-{6-[(2R)-2-hydroxy-3-(methylamino)propoxy]-1-oxo-3H-isoindol-2-yl}pyridin-4-yl)-3-(4-methyl-1,2,4-triazol-3-yl)benzonitrile] | ≤ 200 | ≤ 200
CN(Cc1cc2c(c(C(F)(F)F)c1)CN(c1cc(-c3c(-c4nncn4C)cnn3C)cc(C3CC3)n1)C2=O)CC1(O)CCC1 [AJW-1, 2-{6-Cyclopropyl-4-[2-methyl-4-(4-methyl-1,2,4-triazol-3-yl)pyrazol-3-yl]pyridin-2-yl}-6-({[(1-hydroxycyclobutyl)methyl](methyl)amino}methyl)-4-(trifluoromethyl)-3H-isoindol-1-one] | ≤ 200 | ≤ 200
Cn1cnnc1-c1cc(C#N)ccc1-c1cc(C2CC2)nc(N2Cc3ccc(CNCC4(F)CCC4)cc3C2=O)c1 [AJX-1, 4-{2-Cyclopropyl-6-[6-({[(1-fluorocyclobutyl)methyl]amino}methyl)-1-oxo-3H-isoindol-2-yl]pyridin-4-yl}-3-(4-methyl-1,2,4-triazol-3-yl)benzonitrile] | ≤ 200 | ≤ 200
CN(Cc1ccc2c(c1)C(=O)N(c1cc(-c3ccc(C#N)cc3-c3nncn3C)cc(C3CC3)n1)C2)CC1CCCC1 [AJY-1, 4-[2-(6-{1[(Cyclopentylmethyl)(methyl)amino]methyl}-1-oxo-3H-isoindol-2-yl)-6-cyclopropylpyridin-4-yl]-3-(4-methyl-1,2,4-triazol-3-yl)benzonitrile] | ≤ 200 | ≤ 200
CC(NCC1CCC1)c1ccc2c(c1)C(=O)N(c1cc(-c3ccc(C#N)cc3-c3nncn3C)cc(C3CC3)n1)C2 (stereo not drawn) [AJZ-1, 4-(2-(6-(1-((Cyclobutylmethyl)amino)ethyl)-1-oxoisoindolin-2-yl)-6-cyclopropylpyridin-4-yl)-3-(4-methyl-4H-1,2,4-triazol-3-yl)benzonitrile] | ≤ 200 | ≤ 200
C[C@@H](NCC1CCC1)c1ccc2c(c1)C(=O)N(c1cc(-c3ccc(C#N)cc3-c3nncn3C)cc(C3CC3)n1)C2 [AKA-1, (R)-4-(2-(6-(1-((Cyclobutylmethyl)amino)ethyl)-1-oxoisoindolin-2-yl)-6-cyclopropylpyridin-4-yl)-3-(4-methyl-4H-1,2,4-triazol-3-yl)benzonitrile] | ≤ 200 | ≤ 200
C[C@H](NCC1CCC1)c1ccc2c(c1)C(=O)N(c1cc(-c3ccc(C#N)cc3-c3nncn3C)cc(C3CC3)n1)C2 [AKB-1, (S)-4-(2-(6-(1-((Cyclobutylmethyl)amino)ethyl)-1-oxoisoindolin-2-yl)-6-cyclopropylpyridin-4-yl)-3-(4-methyl-4H-1,2,4-triazol-3-yl)benzonitrile] | ≤ 200 | ≤ 200
Cn1cnnc1-c1cc(C#N)ccc1-c1cc(C2CC2)nc(N2Cc3ccc(CNCC4CC(F)(F)C4)cc3C2=O)c1 [AKC-2, 4-{2-Cyclopropyl-6-[6-({[(3,3-difluorocyclobutyl)methyl]amino}methyl)-1-oxo-3H-isoindol-2-yl]pyridin-4-yl}-3-(4-methyl-1,2,4-triazol-3-yl)benzonitrile] | ≤ 200 | ≤ 200
Cn1cnnc1-c1cc(C#N)ccc1-c1cc(C2CC2)nc(N2Cc3ccc(CNCC45CC(C4)C5)cc3C2=O)c1 [AKD-2, 4-(2-{6-[({Bicyclo[1.1.1]pentan-1-ylmethyl}amino)methyl]-1-oxo-3H-isoindol-2-yl}-6-cyclopropylpyridin-4-yl)-3-(4-methyl-1,2,4-triazol-3-yl)benzonitrile] | ≤ 200 | ≤ 200
COC1(CNCc2ccc3c(c2)C(=O)N(c2cc(-c4ccc(C#N)cc4-c4nncn4C)cc(C4CC4)n2)C3)CCCC1 [AKE-2, 4-{2-Cyclopropyl-6-[6-({[(1-methoxycyclopentyl)methyl]amino}methyl)-1-oxo-3H-isoindol-2-yl]pyridin-4-yl}-3-(4-methyl-1,2,4-triazol-3-yl)benzonitrile] | ≤ 200 | ≤ 200
Cn1cnnc1-c1cc(C#N)ccc1-c1cc(C2CC2)nc(N2Cc3ccc(CNCC4(C#N)CCC4)cc3C2=O)c1 [AKF-2, 4-{2-[6-({[(1-Cyanocyclobutyl)methyl]amino}methyl)-1-oxo-3H-isoindol-2-yl]-6-cyclopropylpyridin-4-yl}-3-(4-methyl-1,2,4-triazol-3-yl)benzonitrile] | ≤ 200 | ≤ 200
COC[C@H](C)NCc1cc(F)c2c(c1)C(=O)N(c1cc(-c3ccc(C#N)cc3-c3nncn3C)cc(C3CC3)n1)C2 [AKG-1, 4-{2-Cyclopropyl-6-[4-fluoro-6-({[(2S)-1-methoxypropan-2-yl]amino}methyl)-1-oxo-3H-isoindol-2-yl]pyridin-4-yl}-3-(4-methyl-1,2,4-triazol-3-yl)benzonitrile] | ≤ 200 | ≤ 200
COC[C@@H](C)NCc1cc(F)c2c(c1)C(=O)N(c1cc(-c3ccc(C#N)cc3-c3nncn3C)cc(C3CC3)n1)C2 [AKH-1, 4-{2-Cyclopropyl-6-[4-fluoro-6-({[(2R)-1-methoxypropan-2-yl]amino}methyl)-1-oxo-3H-isoindol-2-yl]pyridin-4-yl}-3-(4-methyl-1,2,4-triazol-3-yl)benzonitrile] | ≤ 200 | ≤ 200
Cn1cnnc1-c1cnn(C)c1-c1cc(C2CC2)nc(N2Cc3c(cc(CO)cc3C(F)(F)F)C2=O)c1 [AKI-1, 2-{6-Cyclopropyl-4-[2-methyl-4-(4-methyl-1,2,4-triazol-3-yl)pyrazol-3-yl]pyridin-2-yl}-6-(hydroxymethyl)-4-(trifluoromethyl)-3H-isoindol-1-one] | ≤ 200 | ≤ 200
CCOc1cc(-c2ccc(C#N)cc2-c2nncn2C)cc(N2Cc3ccc(CNCC4(F)CCC4)cc3C2=O)n1 [AKJ-1, 4-{2-Ethoxy-6-[6-({[(1-fluorocyclobutyl)methyl]amino}methyl)-1-oxo-3H-isoindol-2-yl]pyridin-4-yl}-3-(4-methyl-1,2,4-triazol-3-yl)benzonitrile] | ≤ 200 | ≤ 200
Cn1cnnc1-c1cc(C#N)ccc1-c1cc(C2CC2)nc(N2Cc3c(F)cc(CNCC4(F)CCC4)cc3C2=O)c1 [AKK-1, 4-{2-Cyclopropyl-6-[4-fluoro-6-({[(1-fluorocyclobutyl)methyl]amino}methyl)-1-oxo-3H-isoindol-2-yl]pyridin-4-yl}-3-(4-methyl-1,2,4-triazol-3-yl)benzonitrile] | ≤ 200 | ≤ 200
COc1cc2c(cc1CO)C(=O)N(c1cc(-c3ccc(C#N)cc3-c3nncn3C)cc(C3CC3)n1)C2 [AKL-2, 4-{2-Cyclopropyl-6-[6-(hydroxymethyl)-5-methoxy-1-oxo-3H-isoindol-2-yl]pyridin-4-yl}-3-(4-methyl-1,2,4-triazol-3-yl)benzonitrile] | ≤ 200 | ≤ 200
COc1cc2c(cc1CNCC1CCC1)C(=O)N(c1cc(-c3ccc(C#N)cc3-c3nncn3C)cc(C3CC3)n1)C2 [AKM-2, 4-[2-(6-{[(Cyclobutylmethyl)amino]methyl}-5-methoxy-1-oxo-3H-isoindol-2-yl)-6-cyclopropylpyridin-4-yl]-3-(4-methyl-1,2,4-triazol-3-yl)benzonitrile] | 1000 to 10000 | 1000 to 10000
